Literature values in publication PMC6748410, “A phase 2 study of an oral mTORC1/mTORC2 kinase inhibitor (CC-223) for non-pancreatic neuroendocrine tumors with or without carcinoid symptoms” (PLoS ONE, 2019).

System: NET arising from the pancreas, lung, or GI tract
Set-up: method as in PMID 26703889, PMID 21306238
Settings: cited from earlier work

## CO[C@H]1C[C@@H]2CC[C@@H](C)[C@@](O)(O2)C(=O)C(=O)N2CCCC[C@H]2C(=O)O[C@H]([C@H](C)C[C@@H]2CC[C@@H](OCCO)[C@H](OC)C2)CC(=O)[C@H](C)/C=C(\C)[C@@H](O)[C@@H](OC)C(=O)[C@H](C)C[C@H](C)/C=C/C=C/C=C/1C [everolimus]
  Median progression-free survival (PFS): 11.0 months
